Measurements taken from US20080146614A1, “Therapeutic Agents” (priority 2004, published 2008).

Biological target: T1, CB1 receptor (Homo sapiens, UniProt P21554)
T1 construct: expressed in transfected cells
Experiment: [35S]-GTPγS binding assay on membranes from cells stably transfected with the CB1 gene, inhibition of agonist CP55940 (EC80)
Assay type: biochemical
Conditions: half maximal inhibition of GTPγS binding, EC80 concentration of CP55940
Description: 10 μg of membranes prepared from cells stably transfected with the CB1 gene were suspended in 200 μl of 100 mM NaCl, 5 mM MgCl2, 1 mM EDTA, 50 mM HEPES (pH 7.4), 1 mM DTT, 0.1% BSA and 100 μM GDP. To this was added an EC80 concentration of agonist (CP55940), the required concentration of test compound and 0.1 μCi [^35S]-GTPγS. The reaction was allowed to proceed at 30° C. for 45 min. Samples were then transferred on to GF/B filters using a cell harvester and washed with wash buffer (50 mM Tris (pH 7.4), 5 mM MgCl2, 50 mM NaCl). Filters were then covered with scintilant and counted for the amount of [^35S]-GTPγS retained by the filter.
Activity is measured in the absence of all ligands (minimum activity) or in the presence of an EC80 concentration of CP55940 (maximum activity). These activities are set as 0% and 100% activity respectively. At various concentrations of novel ligand, activity is calculated as a percentage of the maximum activity and plotted. The data are fitted using the equation y=A+((B−A)/1+((C/x)UD)) and the IC50 value determined as the concentration required to give half maximal inhibition of GTPγS binding under the conditions used.

T1 sequence (P21554 whole entry): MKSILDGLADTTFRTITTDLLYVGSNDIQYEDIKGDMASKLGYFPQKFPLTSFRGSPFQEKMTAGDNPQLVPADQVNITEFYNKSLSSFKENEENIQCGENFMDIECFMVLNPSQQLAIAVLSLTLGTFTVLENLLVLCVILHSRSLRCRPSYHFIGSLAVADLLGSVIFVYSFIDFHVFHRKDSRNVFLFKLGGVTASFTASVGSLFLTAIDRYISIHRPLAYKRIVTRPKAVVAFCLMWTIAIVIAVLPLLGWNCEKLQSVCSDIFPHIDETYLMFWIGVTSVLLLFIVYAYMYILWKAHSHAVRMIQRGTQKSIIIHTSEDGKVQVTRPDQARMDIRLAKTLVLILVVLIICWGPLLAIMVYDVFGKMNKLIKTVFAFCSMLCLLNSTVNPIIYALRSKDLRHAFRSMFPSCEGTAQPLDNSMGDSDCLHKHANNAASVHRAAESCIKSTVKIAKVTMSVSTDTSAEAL

IC50: 3.3 nM
SMILES: CCCS(=O)(=O)Oc1ccc(-c2c(CO)c(C(=O)NN3CCCCC3)nn2-c2ccc(Cl)cc2Cl)cc1 [Example 1, Propane-1-sulfonic acid 4-[2-(2,4-dichlorophenyl)-4-hydroxymethyl-5-(piperidin-1-ylcarbamoyl)-2H-pyrazol-3-yl]-phenyl ester]
